# According to ChEMBL document CHEMBL3745666, “Syntheses and anti-inflammatory activity of azamollugin derivatives” (Bioorg Med Chem Lett, 2016):
# Test system: RAW264.7
# Assay: Antiinflammatory activity in mouse RAW264.7 cells assessed as inhibition of LPS-induced NO production compound pretreated for 1 hr followed by addition of 100 ng/ml LPS for 24 hrs by griess method
# Type: functional, cell-based
SMILES,IC50 [µM],inhibition
COC(=O)C1=C2C=CC(C)(C)N=C2c2ccccc2C1=O,0.34,Dose-dependent effect
CNC(=N)NCCC[C@H](N)C(=O)O [TILARGININE],73.3,–
COC(=O)C1=C2C=CC(C)(C)OC2(O)c2ccccc2C1=O (stereo unspecified),1.3,–

# Continued, in another order:
IC50 [µM],SMILES,inhibition
> 50,COC(=O)c1c(O)c2ccccc2c2nc(C)ccc12,–
> 50,COC(=O)c1c(O)c2ccccc2c2ncccc12,–
